Patent US12247320B2, “Multivalent glycopeptides that tightly bind to carbohydrate-binding monoclonal antibody family PGT128” (BRANDEIS UNIVERSITY, priority 2018, dated 2025)

Key:
[1] = target: PGT128; assay: Binding of radiolabeled, cyclized, glycosylated peptides to PGT128 (Protein G bead capture, scintillation counting); conditions: for Kd: after affinity purification with 100 nM PGT128
Experimental: Radioactive Peptides. For binding analysis, translation (50 μL) was carried out in the presence of PDF/MAP and ^3H-histidine for radiolabeling. The crude peptides were purified by Ni-NTA agarose or, if the sequence contained two cysteine residues, was cyclized while captured on the Ni-NTA resin. The peptide eluents were combined and dialyzed as follows. To the combined eluents was added a solution of Triton X-100 in water for a final concentration of 0.1%. Then, the peptides were dialyzed against 0.1% (v/v) Triton X-100 using a Slide-A-Lyzer™ MINI device (0.1 mL capacity, 3.5 kDa MWCO) (ThermoScientific) at room temperature overnight. The dialyzed peptides were retrieved from the devices, transferring to 0.5 mL centrifuge tubes. The peptide solutions were concentrated to dryness by speedvac for the click reaction.
Sequences were screened for their binding to PGT128 as follows. Each glycosylated peptide (20 fmol) was incubated with either 0 nM or 100 nM PGT128, diluted to 20 μL with 1× selection buffer, tumbling for 1 hour at room temperature. While tumbling, Dynabeads™ Protein G (Invitrogen) were equilibrated with 1× selection buffer as follows. Steps were carried out using a multi-channel pipettor where possible. For each sequence, 5 μL of Protein G bead suspension was transferred to a 0.2 mL PCR tube in a strip. Then, 40 μL of 1× selection buffer was added to the beads. The mixture was resuspended by gently vortexing, spun down briefly, and placed on a magnet for 1 minute. The supernatant was removed, and this wash was repeated two more times. The final supernatant was removed just prior to addition of the incubated peptide/antibody mixture. The mixture was allowed to tumble at room temperature for 30 minutes to capture antibodies and bound peptides. Then, the suspension was briefly spun down, placed on a magnet, and the supernatant was transferred to an individual 0.2 mL PCR tube. To wash the beads, 20 μL of 1× selection buffer was added, gently vortexed, spun down briefly, placed on a magnet for 1 minute, and the wash was transferred to the same PCR tube as the supernatant. This wash step was repeated twice more for a total of three washes, saved altogether with the supernatant as the “unbound” fraction. The beads were then resuspended in 40 μL of denaturing elute buffer. The suspension was heated at 95° C. for 5 minutes to denature antibodies, spun down briefly, placed on a magnet for 1 minute, and the eluent was transferred to an individual 0.2 mL PCR tube. The beads were washed with 40 μL of denaturing elute buffer, and the wash was placed into the same tube as the eluent. The combined eluent and wash represented the “bound” fraction. The beads were resuspended in 40 μL of denaturing elute buffer, vortexed, and directly placed into a vial with liquid scintillation cocktail for radioactivity measurements, though it was not included in calculations of fraction bound. Each of the tubes with the “unbound” and “bound” fractions were placed into vials for LSC. The tube in which the antibody and peptides were incubated were also measured by LSC, but not included in calculations of fraction bound.
Cyclized and glycosylated peptides 91-8 (SEQ ID NO:74) and 91-12 (SEQ ID NO:76) (Heavily Biased library) were subject to PGT128 affinity purification. The sequences (0.3 μmol) were each incubated with 100 nM PGT128, diluted to 40 μL with 1× selection buffer, tumbling for 1 hour at room temperature. The antibody/peptide complexes were captured on equilibrated Protein G (10 μL) and washed as described previously. The bound fraction was then eluted as follows. The beads were resuspended in 10 μL of 1× selection buffer and heated at 70° C. for 30 minutes. Then, the suspension was chilled on ice for 5 minutes, and tumbled at room temperature for 10 minutes. The eluent was separated, and the beads were washed with 10 μL of 1× selection buffer. The wash was combined with the eluent as the “bound” fraction. […]

[2] = Solubility seen during reduction and cyclization of the synthetic peptide; type: physicochemical; conditions: reduced peptide in 200 mM NH4HCO3 with 10 mM TCEP, not glycosylated
Experimental: Then, 9 mg of crude peptide was reduced and cyclized as follows. Each peptide (1 mM final concentration) was dissolved in 200 mM NH4HCO3 with 10 mM TCEP for a reaction volume of 1332 μL. The reactions were tumbled at room temperature for 50 minutes. At that time, the reactions were buffer-exchanged to remove excess TCEP. […] The pellet was washed six times with 1 mL portions of 200 mM NH4HCO3. Portions of the H-22 reaction were transferred to Centricon-500 spin columns (MWCO 2 kDa) with 300 μL of 200 mM NH4HCO3. The filters were spun down and washed six times with 300 μL of 200 mM NH4HCO3. The solutions were then diluted to 1322 μL with 200 mM NH4HCO3, 5.95 mL of water, and 5.68 mL of MeCN in a 15 mL conical tube. Then, 529 μL of a solution of 5 mM m-dibromoxylene in MeCN was added, for a final concentration of 0.2 mM of m-dibromoxylene and 0.1 mM peptide. The cyclization reactions were tumbled at room temperature and monitored by LC-MS. After 40 minutes, H22 was complete. At that time, 132 μL of 5 mM m-dibromoxylene in MeCN was added to the H-1 reaction to push it to completion (total reaction time: 140 minutes). The reactions were quenched by lowering the pH with formic acid. The solutions were concentrated under reduced pressure and lyophilized overnight.

[3] = before PGT128 affinity purification
[4] = following PGT128 affinity purification

What does the source list for “MAHYSXNHXRHPLYPSVNHRXSYPRIGLLSRIGDIRSASCXLRCFRXRST [91-8cy]”?
Kd [1]: 2.73 ± 0.36 nM; maximum fraction bound [1, 3]: 69%; maximum fraction bound [1, 4]: 85%

What does the source list for “XYPNTLNNVYQKCNKYNVIGDIRXARCXHXEHFSSQDQPKSKHKRRYKGF [91-12cy]”?
Kd [1]: 7.41 ± 1.29 nM; maximum fraction bound [1, 3]: 54%; maximum fraction bound [1, 4]: 74%

For “YTEKHNGIGDIRPAICXNSKNQNHRCNHYQIKLYIHXLXRLPHNYRNS [H-1, Top round 12 PGT128 cluster, Heavily Biased library; made by SPPS with C-terminal biotinyl-lysine]”, which solubility [2] is on record?
The solubility was “poor solubility”.
